In patent publication US20150057346A1, “METHODS OF MAINTAINING INTRAMUSCULAR MYOGLOBIN LEVELS, MAINTAINING MAXIMAL AEROBIC CAPACITY, AND ENHANCING THE OXIDATIVE CAPACITY OF MUSCLE IN A SUBJECT” (ABBOTT LABORATORIES, priority 2013, published 2015):

Columns and labels:
Myoglobin = test: Serum myoglobin levels before and after 10 days of bed rest (clinical study, RBM Human DiscoveryMAP); format: in vivo
Protocol: Example 3 describes a clinical study that was conducted to evaluate the effects of 10 days of bed rest on healthy elderly subjects. The exemplary methods are based, at least in part, on inventors' discovery that serum myoglobin levels change by statistically significant amounts in 18 healthy elderly subjects undergoing 10 days of bed rest. The exemplary methods are also based, at least in part, on inventors' discovery that intervention with HMB altered the change in serum myoglobin levels.
(§1) The 24 healthy subjects initially involved in the study were randomized into two groups. Subjects in the treatment group received two β-hydroxy-β-methylbutyrate (HMB) sachets containing 1.5 grams of Ca-HMB (TSI, Salt Lake City, Utah), 4 grams of maltodextrin, and 200 milligrams of calcium with additional sweetener and flavoring agents. Subjects in the control group received two control sachets that were identical to the HMB sachets with the exclusion Ca-HMB. This study was a double-blinded study. Neither the investigators nor the subjects were informed of the identity of any of the study products during the clinical portion of the study. Subjects were instructed to consume a sachet twice daily by mixing a sachet into a non-caloric, non-caffeinated, non-carbonated, non-milk-based beverage of their choice. Treatment with HMB or Control was initiated 5 days prior to bed rest and was continued until the end of the 10 day bed rest period.
After a diet stabilization of 5 days (ambulatory period), subjects remained in bed continuously for 10 days. While confined to bed rest, subjects were allowed to use the bedside commode for urination or were taken in a wheelchair for toileting. Subjects were given the option of taking a sponge bath or showering in a wheelchair. Prophylactic measures were taken to detect and prevent deep vein thrombosis including a blood D-dimer test followed by an ultrasound examination if D-dimer test was positive, passive range of motion exercise during bed rest, the use of TED hose and SCD over the bed rest period. Subjects were offered medication to help mitigate reflux problems associated with being supine. Subjects were constantly monitored by nursing staff and received a daily physical examination by the study physician.
Fasted blood samples were collected from subjects on Day 1 of bed rest and at the end of bed rest for measurement of biomarkers, including myoglobin.
Rules Based Medicine (Myriad RBM, Inc., Austin, Tex.) data generated from the RBM Human DiscoveryMAP v1.0 consists of n=187 biomarkers measured in serum collected at two time points, pre-bed rest and post-bed rest from 18 elderly subjects. The distribution of each marker was evaluated. Each marker has a least detectable dose (LDD) value, defined as the mean+3 standard deviations (SD) of 20 blank samples. For any subject whose marker result was <LDD, the LDD value as provided by RBM was imputed. If the marker result was >LDD, the original result was used. Any marker in which >30% of all subject's results were imputed was excluded from further statistical analyses. Of the initial n=187 RBM markers, n=63 markers from the RBM dataset were excluded from further analyses, leaving n=124 markers for evaluation.
The Control group was examined to determine the biomarkers that changed over bed rest. Individual univariate dependent t-tests were performed on each of the 124 markers. There were a total of 8 participants who had matched data over bed rest within the Control group.
In order to assess the changes in the markers over bed rest that may be mediated by HMB intervention, individual univariate ANCOVA analyses were subsequently performed on each of the 13 (unadjusted) significant markers from the multiple dependent t-tests. Using a Bonferonni adjusted p-value of 0.0038 (0.05/13), 10 markers, including myoglobin, were significant.

[1] = Body composition (lean mass by DXA) over 10 days of bed rest (clinical study); format: in vivo, human; settings: over 10 day bed rest, healthy elderly subjects
Source text: as §1, with “Subjects were instructed to consume a sachet twice daily by mixing a sachet into a non-caloric, non-caffeinated, non-carbonated, non-milk-based beverage of their choice. Treatment with HMB or Control was initiated 5 days prior to bed rest and was continued until the end of the 10 day bed rest period.” left out
After a diet stabilization of 5 days (ambulatory period), subjects remained in bed continuously for 10 days. […] Subjects were constantly monitored by nursing staff and received a daily physical examination by the study physician.
Body weight was measured at baseline and after bed rest to the nearest 0.1 kilogram on an Ohaus scale (Ohaus Corporation, model 15S, Florham Park, N.J.). Nude body weight was calculated as total body weight minus hospital robe weight. Body height was measured to the nearest 0.1 cm without shoes using a stadiometer. Body mass index (BMI) was calculated as weight/height^2 (kg/m^2). […]

[2] = 10 subjects treated with HMB, after 10 days of bed rest
[3] = serum, pre- to post-bed rest (10 days), n = 10

## CC(C)(O)CC(=O)O [HMB, β-hydroxy-β-methylbutyrate]
Myoglobin; [2]
  average decrease in blood levels of myoglobin: 10.2 ng/mL
  decrease in blood levels of myoglobin (percent): 19%
Myoglobin; serum, healthy elderly subjects, n = 10, 1.5 g Ca-HMB sachet twice daily from 5 days prior to bed rest, Day 1 of bed rest
  Myoglobin Pre-bed rest Mean: 49.3 ng/mL
Myoglobin; serum, healthy elderly subjects, n = 10, 1.5 g Ca-HMB sachet twice daily, end of 10 day bed rest
  Myoglobin Post-bed rest Mean: 39.1 ng/mL
Myoglobin; [3]
  Myoglobin % Change: −19 ± 6%
  Myoglobin Change: -10.2 ± 6.4 ng/mL
[1]; p=0.42 paired t-test
  average loss of total lean mass: -0.17 ± 0.19 kg
[1]; p=0.65 paired t-test
  average loss of leg lean mass: -0.08 ± 0.17 kg
